Activity calls are given as the source filed them. The calls are words filed in the database; no cut-off is given here.

Data set [1] has as its system Human immunodeficiency virus 1. As to the kind of experiment: Antiviral activity against HIV-1 3B infected in human MT4 cells assessed as protection against virus-induced cytopathic effect by MTT assay. It counts as functional, organism-based. The conditions noted are these: Human immunodeficiency virus 1, 3B. On the technique in general: Damage to the host cells serves as the signal in cytopathic effect assays.

The test system of a further data set is MT4. The data set can be described thus: Cytotoxicity against mock infected human MT4 cells by MTT assay. It counts as toxicity, cell-based.
The next data set can be described thus: in vitro. Conditions: human, liver microsomes. A general note: Microsomes from liver hold many membrane-bound enzymes, among them those of drug oxidation.
A short description of data set [2]: Metabolic stability in human plasma assessed as parent compound remaining measured after 120 mins by LC-MS/MS analysis. The conditions noted are these: 2 h. It is filed as ADME, cell-free.
Data set [3] relates to Human immunodeficiency virus 1. The data set can be described thus: Antiviral activity against HIV-1 NL4-3 Env-deficient pseudotype virus infected in U87/CD4/CCR5 cells assessed as reduction in viral infection in early stage measured after 48 hrs by luciferase activity based single-round infection assay. It counts as functional, organism-based.
Data set [4] has as its system Human immunodeficiency virus 1. The data set can be described thus: Antiviral activity against HIV-1 NL4-3 Env-deficient pseudotype virus infected in U87/CD4/CCR5 cells assessed as reduction in viral infection in late stage measured after 48 hrs by luciferase activity based single-round infection assay. It is filed as functional, organism-based.

One may read the EC50 as the midpoint of the concentration-response curve. As a reminder, the CC50 is the concentration at which the toxic effect on the cells reaches its halfway point. Low values mean greater toxicity to the cells, high ones lower toxicity to the cells. Turning to `CN(C(=O)[C@H](Cc1ccccc1)NC(=O)c1cccc(C(=O)Nc2cccc(N)c2)c1)c1ccc2scnc2c1`, in data set [1], the EC50 was 23.7 µM. This molecule also came in with a CC50 with MT4 of 134 µM. The matching figures for `CN(C(=O)[C@H](Cc1ccccc1)NC(=O)c1cccc(C(=O)Nc2ccc(F)cc2)c1)c1ccc2scnc2c1`: 31.8 µM and 54 µM.

With `CN(C(=O)[C@H](Cc1ccccc1)NC(=O)c1cccc(C(=O)N2CCN(C(=O)OC(C)(C)C)CC2)c1)c1ccc2scnc2c1`, in data set [1], the concentration giving a half-maximal response (EC50) turned out to be 13.5 µM. Besides, the midpoint of cytotoxicity in the data set on MT4, the CC50, lay at 93.9 µM. The like results for `CN(C(=O)[C@H](Cc1ccccc1)NC(=O)c1cccc(C(=O)Nc2ccc(Br)cc2)c1)c1ccc2scnc2c1` were, in that order, at least 186 µM and above 204 µM. The like results for `CN(C(=O)[C@H](Cc1ccccc1)NC(=O)c1cccc(C(=O)Nc2ccccc2)c1)c1ccc2scnc2c1` were, in that order, 22.4 µM and above 234 µM. For the molecule `CN(C(=O)[C@H](Cc1ccccc1)NC(=O)c1cccc(C(=O)Nc2cccc(NC(=O)OC(C)(C)C)c2)c1)c1ccc2scnc2c1`, the EC50 in data set [1] was above 193 µM. In the data set with MT4, this molecule yielded a CC50 above 193 µM. Consider `CN(C(=O)[C@H](Cc1ccccc1)NC(=O)c1cccc(C(=O)Nc2ccc(OC(F)(F)F)cc2)c1)c1ccc2scnc2c1`, for which the EC50 in data set [1] amounted to 34.9 µM. In the data set on MT4, this molecule yielded a CC50 of 118 µM. The matching figures for `CN(C(=O)[C@H](Cc1ccccc1)NC(=O)c1cccc(C(=O)Nc2ccccc2F)c1)c1ccc2scnc2c1`: 21.9 µM and 66.4 µM.

As for `CN(C(=O)[C@H](Cc1ccccc1)NC(=O)c1cccc(C(=O)Nc2ccccc2N)c1)c1ccc2scnc2c1`, the EC50 in data set [1] is above 25.4 µM. In addition, the CC50 in the data set on MT4 was 25.4 µM.

In general, microsomal CLint refers to a measure of how fast metabolising enzymes remove a compound, apart from limits set by blood flow. Low values mean slow turnover, high ones rapid turnover. In the case of `C[C@]12CC[C@H]3[C@@H](CCC4=CC(=O)CC[C@@]43C)[C@@H]1CC[C@@H]2O` [TESTOSTERONE], the intrinsic clearance (microsomal CLint) in “in vitro” was 82.8 µL/min/mg. Regarding `CN(C(=O)[C@H](Cc1ccccc1)NC(=O)c1cccc(C(=O)Nc2ccncc2)c1)c1ccc2scnc2c1`, in data set [1], the EC50 was at least 41.4 µM. The molecule further gave a CC50 in the data set with MT4 of 37.6 µM.

As to `COc1ccc(NC(=O)c2cccc(C(=O)N[C@@H](Cc3ccccc3)C(=O)N(C)c3ccc4scnc4c3)c2)cc1`, the concentration for a half-maximal effect (EC50) in data set [1] was at least 205 µM. Also, the 50% cytotoxic concentration (CC50) in the data set with MT4 was above 222 µM.

`CN(C(=O)[C@H](Cc1ccccc1)NC(=O)c1cccc(C(=O)Nc2ccc(NC(=O)OC(C)(C)C)cc2)c1)c1ccc2scnc2c1`: the 50% effective concentration (EC50) in data set [1] is above 2.23 µM. Besides, the 50% cytotoxic concentration (CC50) in the data set on MT4 is 2.23 µM. Turning to `CN(C(=O)[C@H](Cc1ccccc1)NC(=O)c1cccc(C(=O)Nc2ccccc2NC(=O)OC(C)(C)C)c1)c1ccc2scnc2c1`, the 50% cytotoxic concentration (CC50) with MT4 is above 193 µM. On to `CN(C(=O)[C@H](Cc1ccccc1)NC(=O)c1cccc(C(=O)Nc2cccc(F)c2)c1)c1ccc2scnc2c1`, for which the EC50 in data set [1] is above 226 µM. For the same molecule, the 50% cytotoxic concentration (CC50) in the data set with MT4 is above 226 µM. For the molecule `CN(C(=O)[C@H](Cc1ccccc1)NC(=O)c1cccc(C(=O)Nc2ccc(C#N)cc2)c1)c1ccc2scnc2c1`, in data set [1], the EC50 came to 13.2 µM. Also, the CC50 in the data set on MT4 was above 224 µM. Turning to `CN(C(=O)[C@H](Cc1ccccc1)NC(=O)c1cccc(C(=O)Nc2ccc(C(F)(F)F)cc2)c1)c1ccc2scnc2c1`, in data set [1], the EC50 was at least 39.5 µM. In addition, in the data set with MT4, the CC50 was found to be 88.2 µM. On to `C#CCNC(=O)c1cccc(C(=O)N[C@@H](Cc2ccccc2)C(=O)N(C)c2ccc3scnc3c2)c1`, for which the EC50 in data set [1] came to 5.02 µM. Further, the Stability entry in data set [2] was “Stable”. `COCCNC(=O)c1cccc(C(=O)N[C@@H](Cc2ccccc2)C(=O)N(C)c2ccc3scnc3c2)c1`: the EC50 in data set [1] came to 15.7 µM. The molecule also yielded a CC50 in the data set on MT4 of 203 µM. Consider `CN(C(=O)[C@H](Cc1ccccc1)NC(=O)c1cccc(C(=O)Nc2ccc(N)cc2)c1)c1ccc2scnc2c1`, for which the EC50 in data set [1] worked out at 3.57 µM. In addition, the Stability result in data set [2] is on record as “Stable”. For the same molecule, the result in data set [3] and in data set [4] was Active. Regarding `O=C(O)Cc1ccccc1Nc1c(Cl)cccc1Cl` [DICLOFENAC], the microsomal CLint in “in vitro” was 372 µL/min/mg. Take `CC(=O)c1ccc(NC(=O)c2cccc(C(=O)N[C@@H](Cc3ccccc3)C(=O)N(C)c3ccc4scnc4c3)c2)cc1`: the EC50 in data set [1] is above 165 µM. In the data set with MT4, the CC50 was 165 µM. The matching figures for `CN(C(=O)[C@H](Cc1ccccc1)NC(=O)c1cccc(C(=O)NC2CCN(C(=O)OC(C)(C)C)CC2)c1)c1ccc2scnc2c1`: above 29.3 µM and 29.3 µM.

As for `CN(C(=O)[C@H](Cc1ccccc1)NC(=O)c1cccc(C(=O)Nc2ccc(Cl)cc2)c1)c1ccc2scnc2c1`, the EC50 in data set [1] is above 220 µM. For the same molecule, the CC50 in the data set with MT4 was above 220 µM. On to `Cc1ccc(NC(=O)c2cccc(C(=O)N[C@@H](Cc3ccccc3)C(=O)N(C)c3ccc4scnc4c3)c2)cc1`, for which, in data set [1], the EC50 is 41.1 µM. Also, the CC50 with MT4 was above 228 µM.

Values taken from ChEMBL document CHEMBL5131381, “Design, synthesis, and mechanistic investigations of phenylalanine derivatives containing a benzothiazole moiety as HIV-1 capsid inhibitors with improved metabolic stability” (Eur J Med Chem, 2022).
